# Test results as given in patent publication US10993984B2, “Terlipressin compositions and their methods of use” (Chiasma, Inc., priority 2016, dated 2021).
# Bridge positions count the residues as written; N and C are the ends. Peptide text beside a SMILES is read from it.
# Assay: in vivo
# Settings: dog, iv, 0.2 mg
# Experimental: The IV dosage was 0.2 mg per dog which is similar to the therapeutic dosage in humans. The oral dosage was 20 mg, and was selected by assuming a BA of about 1%. The concentration of both terlipressin and the active metabolite lysine vasopressin are shown as a function of time. The pharmacokinetic parameters of the active metabolite lysine-vasopressin were determined as well as terlipressin. Each Glypressin ampule contains 1 mg terlipressin acetate, which is equivalent to 0.85 mg terlipressin base. All doses in this study are expressed on the basis of terlipressin base.
# All animals were fasted for at least 12 hours prior to dosing and through the first 4 hours of blood sample collection.
# In the oral terlipressin capsule treatments, in order to acidify the stomach of the dog, approximately 30 minutes prior to dosing each animal received a single subcutaneous (SC) injection of pentagastrin (0.12 mg/mL) at a dose level of 0.006 mg/kg and a dose volume of 0.05 mL/kg. The same dogs can be used for more than one treatment, with a wash-out period of at least 1 week.
# Blood was withdrawn at pre-determined times as follows:
smiles,measurement,value
"NCCCC[C@H](NC(=O)[C@@H]1CCCN1C(=O)[C@@H]1CSSC[C@H](NC(=O)CNC(=O)CNC(=O)CN)C(=O)N[C@@H](Cc2ccc(O)cc2)C(=O)N[C@@H](Cc2ccccc2)C(=O)N[C@@H](CCC(N)=O)C(=O)N[C@@H](CC(N)=O)C(=O)N1)C(=O)NCC(N)=O [IV terlipressin, Terlipressin] (H-GGGCYFQNCPKG-NH2; disulfide 4-9)",AUC(0-inf),9.14 ng·h/mL
same,AUC(0-t),9.13 ng·h/mL
same,Cmax,59.1 ng/mL
same,half-life,13.9 ± 1.32 min
